Assay results published in US20230312528A1, “2-OXO-IMIDAZOLIDINE-4-CARBOXAMIDES AS NAV1.8 INHIBITORS” (Merck Sharp & Dohme LLC, priority 2020, published 2023).

Target: human NaV1.8 (Homo sapiens (Human), UniProt Q9Y5Y9)
Assay: Nav1.8 Qube automated patch-clamp assay
Assay type: cell-based
Conditions: human NaV1.8 stably expressed in HEK 293 cells; automated 384-well patch-clamp; resting or inactivated state not specified
Outline: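 Human NaV1.8 in HEK293 cells, automated whole-cell patch clamp at room temperature: 1 Hz train of ten 20 ms pulses to 10 mV from −90 mV, repolarization to −67 mV. First- and tenth-pulse peak currents gave resting and inactivated-state IC50 values via Hill fits.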

Chain of human NaV1.8 (Q9Y5Y9 whole entry): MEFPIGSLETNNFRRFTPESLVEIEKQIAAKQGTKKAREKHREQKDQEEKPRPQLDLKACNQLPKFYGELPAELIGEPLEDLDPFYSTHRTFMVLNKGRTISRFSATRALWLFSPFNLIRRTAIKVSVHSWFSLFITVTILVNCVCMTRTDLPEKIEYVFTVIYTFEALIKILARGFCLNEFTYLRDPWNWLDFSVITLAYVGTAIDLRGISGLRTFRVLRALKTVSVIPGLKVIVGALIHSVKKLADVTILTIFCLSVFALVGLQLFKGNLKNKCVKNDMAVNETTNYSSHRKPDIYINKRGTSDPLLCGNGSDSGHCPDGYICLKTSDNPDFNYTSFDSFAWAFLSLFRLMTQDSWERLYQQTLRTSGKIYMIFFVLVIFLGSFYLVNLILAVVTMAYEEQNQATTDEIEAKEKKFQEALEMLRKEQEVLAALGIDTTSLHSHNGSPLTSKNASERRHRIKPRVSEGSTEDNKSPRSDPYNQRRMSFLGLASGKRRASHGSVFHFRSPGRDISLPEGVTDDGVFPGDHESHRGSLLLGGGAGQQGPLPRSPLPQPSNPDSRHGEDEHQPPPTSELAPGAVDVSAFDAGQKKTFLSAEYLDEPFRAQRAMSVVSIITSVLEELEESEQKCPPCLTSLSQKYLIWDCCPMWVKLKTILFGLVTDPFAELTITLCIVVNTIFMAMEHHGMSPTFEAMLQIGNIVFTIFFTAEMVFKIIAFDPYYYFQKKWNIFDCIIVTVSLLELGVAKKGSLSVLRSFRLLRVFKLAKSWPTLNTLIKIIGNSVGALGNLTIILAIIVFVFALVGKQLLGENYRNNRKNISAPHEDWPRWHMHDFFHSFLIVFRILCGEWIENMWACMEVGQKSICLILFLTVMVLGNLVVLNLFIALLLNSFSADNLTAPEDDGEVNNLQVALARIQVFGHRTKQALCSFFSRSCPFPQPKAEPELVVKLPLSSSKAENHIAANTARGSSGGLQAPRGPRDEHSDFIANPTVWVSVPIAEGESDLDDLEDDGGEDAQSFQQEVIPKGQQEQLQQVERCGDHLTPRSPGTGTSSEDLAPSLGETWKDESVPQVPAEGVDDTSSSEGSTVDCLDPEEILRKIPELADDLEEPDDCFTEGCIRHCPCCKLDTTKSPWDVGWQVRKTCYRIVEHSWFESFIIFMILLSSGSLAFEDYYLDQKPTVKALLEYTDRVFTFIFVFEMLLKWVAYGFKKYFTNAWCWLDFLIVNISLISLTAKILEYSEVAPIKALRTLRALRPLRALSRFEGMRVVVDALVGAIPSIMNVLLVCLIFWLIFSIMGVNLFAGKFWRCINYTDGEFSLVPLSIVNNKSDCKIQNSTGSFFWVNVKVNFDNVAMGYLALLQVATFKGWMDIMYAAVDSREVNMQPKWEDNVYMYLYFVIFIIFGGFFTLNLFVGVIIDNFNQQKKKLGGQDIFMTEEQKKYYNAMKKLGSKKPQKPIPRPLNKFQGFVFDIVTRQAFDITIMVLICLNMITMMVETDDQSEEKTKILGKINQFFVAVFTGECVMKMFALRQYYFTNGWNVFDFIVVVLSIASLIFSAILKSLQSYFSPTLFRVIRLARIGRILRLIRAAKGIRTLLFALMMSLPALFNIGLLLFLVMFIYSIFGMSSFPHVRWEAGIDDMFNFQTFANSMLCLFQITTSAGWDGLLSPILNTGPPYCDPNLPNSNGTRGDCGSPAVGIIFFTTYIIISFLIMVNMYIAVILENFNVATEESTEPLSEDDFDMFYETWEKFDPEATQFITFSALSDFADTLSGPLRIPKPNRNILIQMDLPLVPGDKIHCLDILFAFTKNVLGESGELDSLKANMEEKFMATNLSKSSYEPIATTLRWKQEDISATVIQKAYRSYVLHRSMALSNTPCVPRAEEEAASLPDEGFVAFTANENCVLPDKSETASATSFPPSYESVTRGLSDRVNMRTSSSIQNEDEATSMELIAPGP

Compound | IC50
O=C1NC[C@@H](C(=O)NC(c2ccc(F)c(Cl)c2F)C2COC(C(F)(F)F)C2)N1 (single isomer, unassigned) [Example 79C, (S)-N-((R or S)-(3-chloro-2,4-difluoro-phenyl)((cis or trans)-5-(trifluoromethyl)tetrahydrofuran-3-yl)methyl)-2-oxoimidazolidine-4-carboxamide] | 886 nM
O=C1NC[C@@H](C(=O)NC(c2ccc(F)c(Cl)c2F)C2COC(C(F)(F)F)C2)N1 (single isomer, unassigned) [Example 79D, (S)-N-((R or S)-(3-chloro-2,4-difluoro-phenyl)((cis or trans)-5-(trifluoromethyl)tetrahydrofuran-3-yl)methyl)-2-oxoimidazolidine-4-carboxamide] | 3680 nM
O=C1NC[C@@H](C(=O)NC(c2ccc(F)c(Cl)c2F)C2COC(C(F)(F)F)C2)N1 (single isomer, unassigned) [Example 79E, (S)-N-((R or S)-(3-chloro-2,4-difluoro-phenyl)((cis or trans)-5-(trifluoromethyl)tetrahydrofuran-3-yl)methyl)-2-oxoimidazolidine-4-carboxamide] | 49 nM
O=C1NC[C@@H](C(=O)NC(c2ccc(F)c(Cl)c2F)C2COC(C(F)(F)F)C2)N1 (single isomer, unassigned) [Example 79F, (S)-N-((R or S)-(3-chloro-2,4-difluoro-phenyl)((cis or trans)-5-(trifluoromethyl)tetrahydrofuran-3-yl)methyl)-2-oxoimidazolidine-4-carboxamide] | 520 nM
O=C1NC[C@@H](C(=O)NC(c2ccc(F)c(Cl)c2F)C2COC(C(F)(F)F)C2)N1 (single isomer, unassigned) [Example 79G, (S)-N-((R or S)-(3-chloro-2,4-difluoro-phenyl)((cis or trans)-5-(trifluoromethyl)tetrahydrofuran-3-yl)methyl)-2-oxoimidazolidine-4-carboxamide] | 2330 nM
O=C1NC[C@@H](C(=O)NC(c2ccc(F)c(Cl)c2F)C2COC(C(F)(F)F)C2)N1 (single isomer, unassigned) [Example 79H, (S)-N-((R or S)-(3-chloro-2,4-difluoro-phenyl)((cis or trans)-5-(trifluoromethyl)tetrahydrofuran-3-yl)methyl)-2-oxoimidazolidine-4-carboxamide] | 3860 nM
O=C1NC[C@@H](C(=O)NC(c2ccc(Cl)cc2)c2ccn3nccc3c2)N1 (single isomer, unassigned) [Example 80A, (S)—N—((R or S)-(4-chlorophenyl)(pyrazolo[1,5-a]pyridin-5-yl)methyl)-2-oxoimidazolidine-4-carboxamide] | 100 nM
O=C1NC[C@@H](C(=O)NC(c2ccc(Cl)cc2)c2ccn3nccc3c2)N1 (single isomer, unassigned) [Example 80B, (S)-N-((R or S)-(4-chlorophenyl) (pyrazolo[1,5-a]pyridin-5-yl)methyl)-2-oxoimidazolidine-4-carboxamide] | 107 nM
O=C1NC[C@@H](C(=O)NC(c2ccc(Cl)cc2)c2ccc3cn[nH]c3c2)N1 (single isomer, unassigned) [Example 82A, (S)-N-((R or S)-(4-chlorophenyl)(1H-indazol-6-yl)methyl)-2-oxoimidazolidine-4-carboxamide] | 255 nM
O=C1NC[C@@H](C(=O)NC(c2ccc(Cl)cc2)c2ccc3cn[nH]c3c2)N1 (single isomer, unassigned) [Example 82B, (S)-N-((R or S)-(4-chlorophenyl)(1H-indazol-6-yl)methyl)-2-oxoimidazolidine-4-carboxamide] | 93 nM
Cc1nc2ccc(C(NC(=O)[C@@H]3CNC(=O)N3)c3ccc(Cl)cc3)cc2o1 (single isomer, unassigned) [Example 83A, (S)-N-((R or S)-(4-chlorophenyl)(2-methylbenzo[d]oxazol-6-yl)methyl)-2-oxoimidazolidine-4-carboxamide] | 147 nM
Cc1nc2ccc(C(NC(=O)[C@@H]3CNC(=O)N3)c3ccc(Cl)cc3)cc2o1 (single isomer, unassigned) [Example 83B, (S)-N-((R or S)-(4-chlorophenyl)(2-methylbenzo[d]oxazol-6-yl)methyl)-2-oxoimidazolidine-4-carboxamide] | 201 nM
CS(=O)(=O)c1ccc(C(NC(=O)[C@@H]2CNC(=O)N2)c2ccc(F)c(Cl)c2)cc1 (single isomer, unassigned) [Example 85A, (S)-N-((R or S)-(3-chloro-4-fluorophenyl)(4-(methylsulfonyl)phenyl)methyl)-2-oxoimidazolidine-4-carboxamide] | 372 nM
CS(=O)(=O)c1ccc(C(NC(=O)[C@@H]2CNC(=O)N2)c2ccc(F)c(Cl)c2)cc1 (single isomer, unassigned) [Example 85B, (S)-N-((R or S)-(3-chloro-4-fluorophenyl)(4-(methylsulfonyl)phenyl)methyl)-2-oxoimidazolidine-4-carboxamide] | 1280 nM
O=C1NC[C@@H](C(=O)NC(c2ccc(F)c(Cl)c2)c2nc3ccccc3s2)N1 (single isomer, unassigned) [Example 87, (S)-N-((R or S)-benzo[d]thiazol-2-yl(3-chloro-4-fluoro-phenyl)methyl)-2-oxoimidazolidine-4-carboxamide] | 2.9 nM
O=C1NC[C@@H](C(=O)NC(c2ccc(F)c(Cl)c2)c2nc3ccccc3o2)N1 (single isomer, unassigned) [Example 88, (S)-N-((R or S)-benzo[d]oxazol-2-yl(3-chloro-4-fluoro-phenyl)methyl)-2-oxoimidazolidine-4-carboxamide] | 8.6 nM
O=C1NC[C@@H](C(=O)NC(c2ccc(OC(F)(F)F)cc2)c2ccc3c(c2)C(F)(F)C3)N1 (single isomer, unassigned) [Example 89, (S)—N—((R or S)-(8,8-difluorobicyclo[4.2.0]octa-1(6),2,4-trien-3-yl)(4-(trifluoromethoxy)phenyl)methyl)-2-oxoimidazolidine-4-carboxamide] | 4.9 nM
O=C1NC[C@@H](C(=O)NC(c2ccc(Cl)cc2)c2ccc3c(c2)CC3(F)F)N1 (single isomer, unassigned) [Example 90, (S)-N-((R or S)-(4-chlorophenyl)(7,7-difluorobicyclo[4.2.0]octa-1(6),2,4-trien-3-yl)methyl)-2-oxoimidazolidine-4-carboxamide] | 3.8 nM
CC1(C)CC(C(NC(=O)[C@@H]2CNC(=O)N2)c2ccc(Cl)cc2)CCN1CC(F)(F)F (single isomer, unassigned) [Example 91A, (4S)—N—((R or S)(4-chlorophenyl)((R or S)2,2-dimethyl-1-(2,2,2-trifluoroethyl)piperidin-4-yl)methyl)-2-oxoimidazolidine-4-carboxamide] | 289 nM
CC1(C)CC(C(NC(=O)[C@@H]2CNC(=O)N2)c2ccc(Cl)cc2)CCN1CC(F)(F)F (single isomer, unassigned) [Example 91B, (4S)—N—((R or S)(4-chlorophenyl)((R or S)2,2-dimethyl-1-(2,2,2-trifluoroethyl)piperidin-4-yl)methyl)-2-oxoimidazolidine-4-carboxamide] | 899 nM
CC1(C)CC(C(NC(=O)[C@@H]2CNC(=O)N2)c2ccc(Cl)cc2)CCN1CC(F)(F)F (single isomer, unassigned) [Example 91C, (4S)—N—((R or S)(4-chlorophenyl)((R or S)2,2-dimethyl-1-(2,2,2-trifluoroethyl)piperidin-4-yl)methyl)-2-oxoimidazolidine-4-carboxamide] | 2960 nM
CC1(C)CC(C(NC(=O)[C@@H]2CNC(=O)N2)c2ccc(Cl)cc2)CCN1CC(F)(F)F (single isomer, unassigned) [Example 91D, (4S)—N—((R or S)(4-chlorophenyl)((R or S)2,2-dimethyl-1-(2,2,2-trifluoroethyl)piperidin-4-yl)methyl)-2-oxoimidazolidine-4-carboxamide] | 458 nM
O=C1NC[C@@H](C(=O)NC(c2ccc(Cl)cc2)c2ncc(Cl)c(C(F)(F)F)n2)N1 (stereo partly drawn) [Example 6, (S)—N-((5-chloro-4-(trifluoromethyl)pyrimidin-2-yl)(4-chlorophenyl)methyl)-2-oxoimidazolidine-4-carboxamide] | 28 nM
O=C1NC[C@@H](C(=O)NC(c2ccc(F)c(Cl)c2)c2ccc(F)c(Cl)c2)N1 [Example 61, (S)-N-(bis(3-chloro-4-fluorophenyl)methyl)-2-oxoimidazolidine-4-carboxamide] | 0.7 nM
CC1(C)CC(C(NC(=O)[C@@H]2CNC(=O)N2)c2ccc(F)c(Cl)c2)C1C(F)(F)F (stereo partly drawn) [Example 68, (4S)-N-((3-chloro-4-fluorophenyl)(3,3-dimethyl-2-(trifluoromethyl)cyclobutyl)methyl)-2-oxoimidazolidine-4-carboxamide] | 604 nM
O=C1NC[C@@H](C(=O)NC(c2ccc(F)c(Cl)c2)C2Cc3ccc(F)cc32)N1 (stereo partly drawn) [Example 69, (4S)-N-((3-chloro-4-fluorophenyl)(4-fluorobicyclo[4.2.0]octa-1(6),2,4-trien-7-yl)methyl)-2-oxoimidazolidine-4-carboxamide] | 141 nM
O=C1NC[C@@H](C(=O)NC(c2ccc(F)c(Cl)c2)C2Cc3ccc(Cl)cc32)N1 (stereo partly drawn) [Example 71, (4S)-N-((3-chloro-4-fluorophenyl)(4-chlorobicyclo[4.2.0]-octa-1(6),2,4-trien-7-yl)methyl)-2-oxoimidazolidine-4-carboxamide] | 44 nM
O=C1NC[C@@H](C(=O)NC(c2ccc(F)c(Cl)c2)c2nc3cccnc3s2)N1 (stereo partly drawn) [Example 72, (4S)-N-((3-chloro-4-fluorophenyl)(thiazolo [5,4-b]pyridin-2-yl)methyl)-2-oxoimidazolidine-4-carboxamide] | 74 nM
Cc1nc(C(F)(F)F)sc1C(NC(=O)[C@@H]1CNC(=O)N1)c1ccc(Cl)cc1 (stereo partly drawn) [Example 76, (4S)-N-((4-chlorophenyl)(4-methyl-2-(trifluoro-methyl)thiazol-5-yl)methyl)-2-oxoimidazolidine-4-carboxamide] | 35 nM
